Measurements as given in publication PMC3466060 (2011).

System: 3′-Fl-AM1A-(18)-Rhd (RNA, riboswitch) GAGGGUGGAACCGCGCUUCGGCGUCCCUC
Assay: FRET binding titration
Settings: 50 mM NaCl, 5 mM MgCl2

Kd: > 100 µM
Structure (SMILES): O=C(Cc1ccccc1)OCC1OC(=O)NC1CN1CCN(c2ccccc2)CC1 (racemic)
